Measured values reported in patent US6525001B1, “Substituted pyrimidine and pyridine herbicides” (Mid-American Commercialization Corporation, priority 1997, dated 2003).

What was measured:
Assay type in all cases: in vivo
[1] = tested on: duck salad (Heteranthera limosa); assay: Test B flood test
Procedure, shortened: (§1)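 Read-out is a visual response score from 0 (no effect) to 10 (complete control), assigned by comparison with untreated controls. Treatment was applied at the 2-leaf stage, and plants stayed in the greenhouse for twelve to sixteen days before scoring.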

[2] = tested on: smallflower flatsedge (Cyperus difformis); assay: Test B flood test
Procedure, shortened: as §1

rice (Oryza sativa) = assay: Test B flood test
Procedure, shortened: as §1

[3] = tested on: bamyardgrass (Echinochloa crus-galli); assay: Test B flood test
Procedure, shortened: as §1

[4] = tested on: broadleaf signalgrass (Brachiaria decumbens); assay: Test B pre-/postemergence; set-up: key: 0 is no effect; 10 is complete control; conditions: for B. signalgrass plant response rating: Preemergence
Procedure, shortened: (§2)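 Compounds in a surfactant-containing, non-phytotoxic solvent blend are applied to freshly planted seed (preemergence) and, concurrently, to seedlings of 2 to 18 cm at 1–4 leaves (postemergence). Plants stay in the greenhouse twelve to sixteen days and are then scored visually from 0 (no effect) to 10 (complete control).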

[5] = tested on: sugar beet (Beta vulgaris); assay: Test B pre-/postemergence; set-up: key: 0 is no effect; 10 is complete control
Procedure, shortened: as §2

wild oat (Avena fatua) = assay: Test B pre-/postemergence; set-up: key: 0 is no effect; 10 is complete control
Procedure, shortened: as §2

[6] = tested on: pigweed (Amaranthus retroflexus); assay: Test B pre-/postemergence; set-up: key: 0 is no effect; 10 is complete control
Procedure, shortened: as §2

[7] = tested on: velvetleaf (Abutilon theophrasti); assay: Test B pre-/postemergence; set-up: key: 0 is no effect; 10 is complete control
Procedure, shortened: as §2

[8] = tested on: purple nutsedge (Cyperus rotundus); assay: Test B pre-/postemergence; set-up: key: 0 is no effect; 10 is complete control
Procedure, shortened: as §2

[9] = tested on: giant foxtail (Setaria faberii); assay: Test B pre-/postemergence; set-up: key: 0 is no effect; 10 is complete control
Procedure, shortened: as §2

soybean (Glycine max) = assay: Test B pre-/postemergence; set-up: key: 0 is no effect; 10 is complete control
Procedure, shortened: as §2

corn (Zea mays) = assay: Test B pre-/postemergence; set-up: key: 0 is no effect; 10 is complete control; conditions: for Corn plant response rating: Preemergence
Procedure, shortened: as §2

[10] = tested on: blackgrass (Alopecurus myosuroides); assay: Test B pre-/postemergence; set-up: key: 0 is no effect; 10 is complete control; conditions: for Blackgrass plant response rating: Preemergence
Procedure, shortened: as §2

[11] = tested on: wheat (Triticum aestivum); assay: Test B pre-/postemergence; set-up: key: 0 is no effect; 10 is complete control
Procedure, shortened: as §2

[12] = tested on: cocklebur (Xanthium strumarium); assay: Test B pre-/postemergence; set-up: key: 0 is no effect; 10 is complete control; conditions: for Cocklebur plant response rating: Preemergence
Procedure, shortened: as §2

[13] = tested on: bedstraw (Galium aparine); assay: Test B pre-/postemergence; set-up: key: 0 is no effect; 10 is complete control; conditions: for Bedstraw plant response rating: Preemergence
Procedure, shortened: as §2

rape (Brassica napus) = assay: Test B pre-/postemergence; set-up: key: 0 is no effect; 10 is complete control
Procedure, shortened: as §2

[14] = tested on: momingglory (Ipomoea hederacea); assay: Test B pre-/postemergence; set-up: key: 0 is no effect; 10 is complete control
Procedure, shortened: as §2

[15] = tested on: crabgrass (Digitaria sanguinalis); assay: Test B pre-/postemergence; set-up: key: 0 is no effect; 10 is complete control; conditions: for Crabgrass plant response rating: Preemergence
Procedure, shortened: as §2

[16] = Rate 62 g/ha, Postemergence (flood test)
[17] = Rate 125 g/ha, Postemergence, flood test
[18] = Rate 250 g/ha, Postemergence (flood test species)
[19] = Rate 125 g/ha, Postemergence section (flood test species)
[20] = Rate 250 g/ha, Postemergence (so in the source)

Cc1cnc(-c2ccc(Cl)cc2F)nc1Cc1cccc(C(F)(F)F)c1 [Compound 29]
8: Plant response rating, S. Flatsedge [2, 18] | Plant response rating, Redroot pigweed ([6]; Rate 62 g/ha, Postemergence) | Plant response rating, Cocklebur ([12]; Rate 250 g/ha, Postemergence) | Plant response rating, Rape (rape (Brassica napus); Rate 62 g/ha, Postemergence) | Plant response rating, Morningglory ([14]; Rate 62 g/ha, Postemergence)
6: S. Flatsedge plant response rating [2, 19] | Plant response rating, Cocklebur ([12]; Rate 62 g/ha, Postemergence) | Plant response rating, Cocklebur ([12]; Rate 125 g/ha, Postemergence) | Plant response rating, Crabgrass ([15]; Rate 125 g/ha, Postemergence)
9: Plant response rating, Sugarbeets ([5]; Rate 62 g/ha, Postemergence) | Sugarbeets plant response rating ([5]; Rate 125 g/ha, Postemergence) | Plant response rating, Giant foxtail [9, 20] | Plant response rating, Bedstraw ([13]; Rate 125 g/ha, Postemergence) | Plant response rating, Bedstraw ([13]; Rate 250 g/ha, Postemergence) | Rape plant response rating (rape (Brassica napus); Rate 125 g/ha, Postemergence) | Plant response rating, Rape (rape (Brassica napus); Rate 250 g/ha, Postemergence) | Plant response rating, Crabgrass ([15]; Rate 250 g/ha, Postemergence)
3: Plant response rating, Ducksalad [1, 17] | Plant response rating, Rice (rice (Oryza sativa); [18]) | Plant response rating, Barnyardgrass [3, 17] | Plant response rating, B. signalgrass ([4]; Rate 62 g/ha, Postemergence) | Plant response rating, B. signalgrass ([4]; Rate 125 g/ha, Postemergence) | B. signalgrass plant response rating ([4]; Rate 125 g/ha) | Plant response rating, Sugarbeets ([5]; Rate 125 g/ha, Preemergence) | Redroot pigweed plant response rating ([6]; Rate 125 g/ha, Preemergence) | Plant response rating, Redroot pigweed [6, 20] | Plant response rating, Velvetleaf ([7]; Rate 62 g/ha, Postemergence) | Velvetleaf plant response rating ([7]; Rate 125 g/ha, Postemergence) | Plant response rating, Giant foxtail ([9]; Rate 62 g/ha, Postemergence) | Plant response rating, Soybean (soybean (Glycine max); Rate 62 g/ha, Postemergence) | Plant response rating, Corn (corn (Zea mays); Rate 250 g/ha, Postemergence) | Plant response rating, Blackgrass ([10]; Rate 125 g/ha, Postemergence) | Plant response rating, Blackgrass [10, 20] | Wheat plant response rating ([11]; Rate 125 g/ha, Postemergence) | Plant response rating, Bedstraw [13, 20] | Plant response rating, Morningglory [14, 20]
0: Sugarbeets plant response rating ([5]; Rate 62 g/ha, Preemergence) | Wild oats plant response rating (wild oat (Avena fatua); Rate 62 g/ha, Preemergence) | Plant response rating, Wild oats (wild oat (Avena fatua); Rate 125 g/ha, Preemergence) | Redroot pigweed plant response rating ([6]; Rate 62 g/ha, Preemergence) | Velvetleaf plant response rating ([7]; Rate 62 g/ha, Preemergence) | Plant response rating, Velvetleaf ([7]; Rate 125 g/ha, Preemergence) | Plant response rating, Velvetleaf [7, 20] | Plant response rating, Nutsedge ([8]; Rate 62 g/ha, Postemergence) | Nutsedge plant response rating ([8]; Rate 62 g/ha, Preemergence) | Nutsedge plant response rating ([8]; Rate 125 g/ha, Postemergence) | Nutsedge plant response rating ([8]; Rate 125 g/ha, Preemergence) | Soybean plant response rating (soybean (Glycine max); Rate 62 g/ha, Preemergence) | Plant response rating, Soybean (soybean (Glycine max); Rate 125 g/ha, Preemergence) | Plant response rating, Soybean (soybean (Glycine max); [20]) | Corn plant response rating (corn (Zea mays); Rate 62 g/ha) | Corn plant response rating (corn (Zea mays); Rate 125 g/ha) | Plant response rating, Corn (corn (Zea mays); [20]) | Wheat plant response rating ([11]; Rate 62 g/ha, Preemergence) | Plant response rating, Wheat ([11]; Rate 125 g/ha, Preemergence) | Plant response rating, Wheat [11, 20] | Cocklebur plant response rating ([12]; Rate 62 g/ha) | Cocklebur plant response rating ([12]; Rate 125 g/ha) | Plant response rating, Cocklebur [12, 20] | Bedstraw plant response rating ([13]; Rate 62 g/ha) | Morningglory plant response rating ([14]; Rate 62 g/ha, Preemergence)
1: Plant response rating, Ducksalad [1, 16] | Plant response rating, S. Flatsedge [2, 16] | Plant response rating, Rice (rice (Oryza sativa); [16]) | B. signalgrass plant response rating ([4]; Rate 62 g/ha) | Wild oats plant response rating (wild oat (Avena fatua); Rate 62 g/ha, Postemergence) | Plant response rating, Wild oats (wild oat (Avena fatua); [20]) | Giant foxtail plant response rating ([9]; Rate 62 g/ha, Preemergence) | Blackgrass plant response rating ([10]; Rate 62 g/ha) | Blackgrass plant response rating ([10]; Rate 125 g/ha) | Bedstraw plant response rating ([13]; Rate 125 g/ha) | Rape plant response rating (rape (Brassica napus); Rate 62 g/ha, Preemergence) | Rape plant response rating (rape (Brassica napus); Rate 125 g/ha, Preemergence) | Plant response rating, Rape (rape (Brassica napus); [20])
2: Rice plant response rating (rice (Oryza sativa); [19]) | Plant response rating, Barnyardgrass [3, 16] | Wild oats plant response rating (wild oat (Avena fatua); Rate 125 g/ha, Postemergence) | Plant response rating, Corn (corn (Zea mays); Rate 62 g/ha, Postemergence) | Plant response rating, Corn (corn (Zea mays); Rate 125 g/ha, Postemergence) | Plant response rating, Blackgrass ([10]; Rate 62 g/ha, Postemergence) | Wheat plant response rating ([11]; Rate 62 g/ha, Postemergence) | Plant response rating, Bedstraw ([13]; Rate 62 g/ha, Postemergence) | Morningglory plant response rating ([14]; Rate 125 g/ha, Preemergence) | Crabgrass plant response rating ([15]; Rate 62 g/ha)
10: Plant response rating, Sugarbeets ([5]; Rate 250 g/ha, Postemergence) | Redroot pigweed plant response rating ([6]; Rate 125 g/ha, Postemergence) | Plant response rating, Redroot pigweed ([6]; Rate 250 g/ha, Postemergence) | Morningglory plant response rating ([14]; Rate 125 g/ha, Postemergence) | Plant response rating, Morningglory ([14]; Rate 250 g/ha, Postemergence)
4: Plant response rating, Ducksalad [1, 18] | Plant response rating, Barnyardgrass [3, 18] | Plant response rating, B. signalgrass ([4]; Rate 250 g/ha, Postemergence as printed in head r139 (second section for compounds 26-50)) | Plant response rating, Sugarbeets [5, 20] | Plant response rating, Wild oats (wild oat (Avena fatua); Rate 250 g/ha, Postemergence) | Plant response rating, Velvetleaf ([7]; Rate 250 g/ha, Postemergence) | Giant foxtail plant response rating ([9]; Rate 125 g/ha, Postemergence) | Giant foxtail plant response rating ([9]; Rate 125 g/ha, Preemergence) | Plant response rating, Giant foxtail ([9]; Rate 250 g/ha, Postemergence) | Soybean plant response rating (soybean (Glycine max); Rate 125 g/ha, Postemergence) | Plant response rating, Wheat ([11]; Rate 250 g/ha, Postemergence) | Plant response rating, Crabgrass ([15]; Rate 62 g/ha, Postemergence) | Crabgrass plant response rating ([15]; Rate 125 g/ha)
5: Plant response rating, B. signalgrass ([4]; Rate 250 g/ha, Postemergence) | Plant response rating, Blackgrass ([10]; Rate 250 g/ha, Postemergence)
7: Plant response rating, Soybean (soybean (Glycine max); Rate 250 g/ha, Postemergence) | Plant response rating, Crabgrass [15, 20]
